Laboratory results from ChEMBL document CHEMBL1201862, “PubChem BioAssay data set” (2004).
Calls of active or inactive are those of the source.

Legend:
[1] = target: ATP-dependent molecular chaperone HSP82 (Candida albicans (strain WO-1) (Yeast), UniProt C4YTQ8); test: loss of DOC-induced GRE-beta-galactosidase reporter signal, dose response, Hsp90 inhibitor project, S. cerevisiae, luminescence (AID 2400); assay type: functional, cell-based;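 further: beta-galactosidase luminescence from glucocorticoid response element reporter as proxy for Hsp90 function; inhibitor potency where signal loss means Hsp90 inhibition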
[2] = C. albicans growth with fluconazole, confirmation, fluorescence, retest (AID 2467); assay type: functional, cell-based
Streptokinase A = target: T1, Streptokinase A (Streptococcus pyogenes serotype M1, UniProt P10520); test: S. pyogenes streptokinase expression inhibitors, potency, dose response, plasminogen activation absorbance, OD405 (AID 1914); assay type: functional, Streptococcus pyogenes M1 GAS;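 further: secreted streptokinase activity via plasminogen activation per viability signal from cell pellet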
T1 sequence (P10520 whole entry): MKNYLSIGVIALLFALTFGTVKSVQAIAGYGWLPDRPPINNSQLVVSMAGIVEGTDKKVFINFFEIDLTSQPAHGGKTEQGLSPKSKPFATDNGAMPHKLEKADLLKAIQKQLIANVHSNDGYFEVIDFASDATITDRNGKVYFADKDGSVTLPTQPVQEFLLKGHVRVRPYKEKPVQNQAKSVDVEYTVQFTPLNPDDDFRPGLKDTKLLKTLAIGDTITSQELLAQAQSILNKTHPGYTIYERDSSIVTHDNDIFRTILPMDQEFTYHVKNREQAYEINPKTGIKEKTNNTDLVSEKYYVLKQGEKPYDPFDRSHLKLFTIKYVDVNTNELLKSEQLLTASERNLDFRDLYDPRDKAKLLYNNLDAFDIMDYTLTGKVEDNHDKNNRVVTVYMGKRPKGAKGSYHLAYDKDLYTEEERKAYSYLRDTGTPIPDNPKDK

Streptococcus = test: Group A Streptococcus viability loss, dose response, counter-screen for streptokinase expression inhibitor project, luminescence, BacTiterGlo (AID 1915); assay type: functional, organism-based;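 further: potency for reduction of bacterial viability or growth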
[3] = Luminescence Cell-Based Dose Retest to Confirm Inhibitors of Cancer Stem Cells. [Related pubchem assays (depositor defined):AID2717, AID2721]; assay type: functional; settings: Homo sapiens
[4] = target: T2, High affinity choline transporter 1 (Homo sapiens, UniProt Q9GZV3); test: CHT inhibitors, dose response, cell-based, 5-point CRC, membrane potential dye (AID 504840); assay type: functional
T2 sequence (Q9GZV3 whole entry): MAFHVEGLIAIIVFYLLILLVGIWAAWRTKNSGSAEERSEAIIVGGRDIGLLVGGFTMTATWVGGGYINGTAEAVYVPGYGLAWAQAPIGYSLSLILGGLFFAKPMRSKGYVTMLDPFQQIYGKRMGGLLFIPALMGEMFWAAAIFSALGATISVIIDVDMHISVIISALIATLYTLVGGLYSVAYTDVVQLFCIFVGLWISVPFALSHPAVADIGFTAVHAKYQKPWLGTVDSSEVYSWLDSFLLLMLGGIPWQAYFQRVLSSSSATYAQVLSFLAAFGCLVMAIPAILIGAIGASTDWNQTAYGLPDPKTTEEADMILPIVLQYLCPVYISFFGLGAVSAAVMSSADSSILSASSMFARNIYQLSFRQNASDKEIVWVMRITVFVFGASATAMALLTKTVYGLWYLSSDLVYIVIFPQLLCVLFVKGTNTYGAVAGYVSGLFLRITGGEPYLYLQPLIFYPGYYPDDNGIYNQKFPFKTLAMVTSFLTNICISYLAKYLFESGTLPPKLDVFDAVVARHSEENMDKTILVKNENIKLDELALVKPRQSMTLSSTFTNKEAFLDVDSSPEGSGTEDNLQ

[5] = NIH-3T3 fibroblast cytotoxicity, dose response, cytotoxicity control, cell-based, fluorescence, Alamar Blue, secondary assay (AID 2327); assay type: functional;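 further: NIH-3T3 mouse fibroblasts cultured with fluconazole at 8 µg/mL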
[6] = target: T3, Serine/threonine-protein phosphatase (Candida dubliniensis (strain CD36 / CBS 7987 / NCPF 3949 / NRRLY-17841) (Yeast), UniProt B9W6M3); test: calcineurin pathway inhibitors in yeast reporter, dose response, S. cerevisiae, CDRE-lacZ, luminescence, secondary (AID 2388); assay type: functional, cell-based;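 further: yeast reporter cells carrying a calcineurin-responsive lacZ construct stimulated with calcium chloride; luminescent beta-galactosidase reporter signal in whole cells rather than isolated phosphatase activity; potency for inhibition where a drop in reporter signal means calcineurin blockade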
T3 sequence (B9W6M3 whole entry): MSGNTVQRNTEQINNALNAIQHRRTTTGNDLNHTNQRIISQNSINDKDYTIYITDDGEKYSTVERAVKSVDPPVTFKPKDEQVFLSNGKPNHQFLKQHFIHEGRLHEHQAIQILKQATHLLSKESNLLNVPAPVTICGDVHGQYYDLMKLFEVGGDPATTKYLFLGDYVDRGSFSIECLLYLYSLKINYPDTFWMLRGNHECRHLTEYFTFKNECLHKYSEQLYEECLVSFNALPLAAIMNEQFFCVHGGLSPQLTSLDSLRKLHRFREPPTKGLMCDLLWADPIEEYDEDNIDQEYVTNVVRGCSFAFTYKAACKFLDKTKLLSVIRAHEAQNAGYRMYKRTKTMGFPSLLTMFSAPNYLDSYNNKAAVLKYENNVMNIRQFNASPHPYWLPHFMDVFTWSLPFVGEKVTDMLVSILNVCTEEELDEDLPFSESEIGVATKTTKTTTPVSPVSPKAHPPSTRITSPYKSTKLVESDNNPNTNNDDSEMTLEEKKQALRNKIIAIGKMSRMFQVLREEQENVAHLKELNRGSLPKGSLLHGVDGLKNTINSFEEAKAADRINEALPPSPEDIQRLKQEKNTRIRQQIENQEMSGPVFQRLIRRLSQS

[7] = test system: Streptococcus sp. 'group A'; test: growth inhibition of control SK(-) GAS strain, dose response, counter-screen for streptokinase expression inhibitor project, luminescence, kanamycin, BacTiterGlo, confirmation (AID 1900); assay type: functional, organism-based
[8] = target: T4, DNA repair protein RAD52 homolog (Homo sapiens, UniProt P43351); assay type: functional, biochemical
T4 sequence (P43351 whole entry): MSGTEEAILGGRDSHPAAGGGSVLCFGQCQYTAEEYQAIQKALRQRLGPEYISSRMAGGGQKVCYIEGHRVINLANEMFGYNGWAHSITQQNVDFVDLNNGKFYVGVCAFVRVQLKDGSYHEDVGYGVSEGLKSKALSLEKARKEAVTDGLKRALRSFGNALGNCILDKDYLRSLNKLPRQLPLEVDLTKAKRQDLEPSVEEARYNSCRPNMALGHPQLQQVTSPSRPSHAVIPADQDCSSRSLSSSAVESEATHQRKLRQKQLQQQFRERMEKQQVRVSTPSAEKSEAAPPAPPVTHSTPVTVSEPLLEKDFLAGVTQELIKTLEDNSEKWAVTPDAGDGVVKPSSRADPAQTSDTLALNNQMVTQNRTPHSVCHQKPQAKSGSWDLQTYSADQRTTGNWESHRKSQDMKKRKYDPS

Vero = Vero cell cytotoxicity, cytotoxicity control for flavivirus capping enzyme inhibitors (AID 588742); assay type: functional; settings: Chlorocebus sabaeus
[9] = target: Heat shock protein HSP 90-alpha (Homo sapiens, UniProt P07900); assay type: functional, organism-based
Tumor necrosis factor = Tumor necrosis factor (Homo sapiens, UniProt P01375); test: TNFa-triggered NF-kB activation inhibitors, SAR follow-up, cell-based, revised (AID 2337); assay type: functional
HEK293 = test: cells; settings: Homo sapiens;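 further: cells exposed to compound for 14 hours overnight before viability readout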
[10] = target: T5, Nucleotide-binding oligomerization domain-containing protein 1 (Homo sapiens, UniProt Q9Y239); test: NOD1 signaling inhibitors, SAR follow-up, revised (AID 2333); assay type: functional
T5 sequence (Q9Y239 whole entry): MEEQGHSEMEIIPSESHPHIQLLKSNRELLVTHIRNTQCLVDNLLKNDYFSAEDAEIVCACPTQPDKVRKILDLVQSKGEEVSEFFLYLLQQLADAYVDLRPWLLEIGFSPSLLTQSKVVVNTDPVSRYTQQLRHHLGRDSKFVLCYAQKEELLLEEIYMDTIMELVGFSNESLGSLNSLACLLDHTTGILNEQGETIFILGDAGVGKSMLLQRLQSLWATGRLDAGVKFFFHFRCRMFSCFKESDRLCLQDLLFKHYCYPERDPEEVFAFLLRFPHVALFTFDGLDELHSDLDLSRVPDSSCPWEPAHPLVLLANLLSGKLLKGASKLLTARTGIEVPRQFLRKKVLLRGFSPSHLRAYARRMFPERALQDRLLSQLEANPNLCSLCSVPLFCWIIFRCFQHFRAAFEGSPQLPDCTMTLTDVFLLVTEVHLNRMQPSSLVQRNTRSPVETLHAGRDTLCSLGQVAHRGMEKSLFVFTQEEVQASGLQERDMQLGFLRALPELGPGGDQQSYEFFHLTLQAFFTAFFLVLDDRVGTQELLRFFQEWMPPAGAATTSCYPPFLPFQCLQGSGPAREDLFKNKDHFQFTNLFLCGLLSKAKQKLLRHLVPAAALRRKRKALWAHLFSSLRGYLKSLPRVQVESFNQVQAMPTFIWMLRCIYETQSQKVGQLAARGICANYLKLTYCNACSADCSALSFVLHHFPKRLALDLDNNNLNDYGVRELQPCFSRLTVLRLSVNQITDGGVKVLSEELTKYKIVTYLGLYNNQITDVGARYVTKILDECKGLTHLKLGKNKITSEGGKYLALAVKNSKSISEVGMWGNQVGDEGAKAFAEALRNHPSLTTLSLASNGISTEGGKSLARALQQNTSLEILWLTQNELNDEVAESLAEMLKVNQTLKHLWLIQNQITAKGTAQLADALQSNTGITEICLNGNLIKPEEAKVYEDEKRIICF

Sequence of ATP-dependent molecular chaperone HSP82 (C4YTQ8 whole entry): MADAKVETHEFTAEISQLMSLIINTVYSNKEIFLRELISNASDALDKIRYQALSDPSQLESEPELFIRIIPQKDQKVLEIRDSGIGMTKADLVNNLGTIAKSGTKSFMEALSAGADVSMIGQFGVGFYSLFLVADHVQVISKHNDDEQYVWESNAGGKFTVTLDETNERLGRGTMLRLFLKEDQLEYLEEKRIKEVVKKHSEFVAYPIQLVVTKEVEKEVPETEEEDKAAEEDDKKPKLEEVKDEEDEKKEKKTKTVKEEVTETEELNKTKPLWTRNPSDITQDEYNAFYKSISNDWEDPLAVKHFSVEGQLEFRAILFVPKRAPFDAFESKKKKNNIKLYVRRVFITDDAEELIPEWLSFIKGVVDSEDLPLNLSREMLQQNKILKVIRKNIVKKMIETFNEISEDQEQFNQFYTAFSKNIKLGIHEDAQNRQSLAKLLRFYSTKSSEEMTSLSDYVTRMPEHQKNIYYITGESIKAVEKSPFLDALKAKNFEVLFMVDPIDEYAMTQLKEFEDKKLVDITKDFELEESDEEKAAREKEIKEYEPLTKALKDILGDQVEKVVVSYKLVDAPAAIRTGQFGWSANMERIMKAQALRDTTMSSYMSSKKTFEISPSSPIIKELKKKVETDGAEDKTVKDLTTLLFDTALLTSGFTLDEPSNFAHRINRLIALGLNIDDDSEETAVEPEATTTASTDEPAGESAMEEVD
Sequence of Tumor necrosis factor (P01375 whole entry): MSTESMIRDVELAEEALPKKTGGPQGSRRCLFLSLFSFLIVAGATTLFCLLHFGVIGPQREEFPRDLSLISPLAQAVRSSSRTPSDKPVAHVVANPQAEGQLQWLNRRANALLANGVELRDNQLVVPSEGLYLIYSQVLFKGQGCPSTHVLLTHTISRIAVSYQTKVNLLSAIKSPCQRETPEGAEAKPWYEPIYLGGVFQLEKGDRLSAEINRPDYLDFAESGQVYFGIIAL

Row | Structure (SMILES) | EC50 [1] | EC50 [2] | EC50 (Streptokinase A) | EC50 (Streptococcus) | AC50 [3] | IC50 [4] | EC50 [5] | EC50 [6] | EC50 [7] | AC50 [8] | CC50 (Vero) | AC50 [9] | IC50 (Tumor necrosis factor) | IC50 (HEK293) | IC50 [10]
1 | O=C(NNC1=C(C(=O)C(F)(F)F)CCC1)c1cccc(Cl)c1 | 24.6 µM (active) | 0.741 µM (active) | > 150 µM (not active) | 2.77 µM (active) | 1.95 µM (active) | 11 µM (active) | > 150 µM (inactive) | > 180 µM (inactive) | 1.23 µM (active) | – | – | – | – | – | –
2 | CC(C)N1CCc2c(sc(NC(=O)c3nc4ccccc4s3)c2C(N)=O)C1 | 51.8 µM (active) | 0.491 µM (active) | – | – | – | – | > 150 µM (inactive) | > 180 µM (inactive) | – | 9.55 µM (active) | – | – | – | – | –
3 | [O-][n+]1cccc2c(Br)cc(Br)c(O)c21 | > 160 µM (inactive) | 0.651 µM (active) | > 150 µM (not active) | 18.7 µM (active) | – | – | > 150 µM (inconclusive) | > 180 µM (inactive) | 0.865 µM (active) | – | > 40 µM (active) | 3.15 µM (active) | – | – | –
4 | COc1ccc(NC(=O)c2ccc(CN3CCc4ccccc43)cc2)cc1 | – | – | – | – | – | – | – | – | – | – | – | – | > 20 µM (inactive) | > 20 µM (inactive) | > 20 µM (inactive)
